What is called half-life is the time in which the quantity being followed falls by half. Low values mean fast loss, high ones slow loss. What is called Vd is a proportionality between amount in the body and measured concentration, not a real space. As a reminder, the MRT is the average time that molecules of a dose stay in the body. The term fraction unbound denotes free concentration divided by total concentration. A low value points to extensive binding. One may read the clearance as the volume of plasma or blood freed of the substance per unit of time. Low readings indicate a low capacity for elimination, high ones a high capacity for elimination.

The nature of data set [1]: clinical. As to conditions: human, in vivo, iv, t1/2.
The nature of data set [2]: clinical. The conditions noted are these: human, in vivo, iv, Vdss.
Data set [3] is described as follows: clinical. The conditions noted are these: human, in vivo, iv.
Data set [4] in a line: clinical. The conditions noted are these: human, in vivo, iv. This is another data set of the same source.
Data set [5] can be described thus: clinical. The conditions noted are these: human, in vivo, iv, CL.

Numbered stars: 1 amine (or outer) side, 2 acyl side, 3 side chain; on linkers, the order of the positions; unused ones are H or OH. Bridge positions count the residues as written; N and C are the ends. Square brackets hold non-standard residues; d marks the D form. Peptide text beside a SMILES is read from it. * marks the point of attachment. X2 = O=C1C[C@@H](C(=O)[*:2])N([*:1])C[C@H]1CS[C@@H]1CN2CCC1CC2; NMePhe(4-NMe2) = CN[C@@H](Cc1ccc(N(C)C)cc1)C(=O)O; dPhe(4-Cl) = N[C@H](Cc1ccc(Cl)cc1)C(=O)O; d2Nal = N[C@H](Cc1ccc2ccccc2c1)C(=O)O; Picolinoyl(3-OH) = O=C(c1ncccc1O)*; dCit = NC(=O)NCCC[C@@H](N)C(=O)O; d3Pal = N[C@H](Cc1cccnc1)C(=O)O; Phg = N[C@H](C(=O)O)c1ccccc1; dAbu = CC[C@@H](N)C(=O)O

Turning to `CCCCCCCCCC(=O)N[C@@H](Cc1c[nH]c2ccccc12)C(=O)N[C@H](CC(N)=O)C(=O)N[C@@H](CC(=O)O)C(=O)N[C@@H]1C(=O)NCC(=O)N[C@@H](CCCN)C(=O)N[C@@H](CC(=O)O)C(=O)N[C@H](C)C(=O)N[C@@H](CC(=O)O)C(=O)NCC(=O)N[C@H](CO)C(=O)N[C@@H]([C@H](C)CC(=O)O)C(=O)N[C@@H](CC(=O)c2ccccc2N)C(=O)O[C@@H]1C`, in “clinical [1]”, the half-life was 8.1 h. This compound also had a distribution volume (Vd) in the data set “clinical [2]” of 0.088 L/kg. Besides, the MRT in “clinical [3]” was 9.2 h. Moreover, the fraction unbound in “clinical [4]” is 0.083. Moreover, the clearance in “clinical [5]” amounted to 0.16 mL/min/kg.

In the case of `CC[C@H]1NC(=O)[C@@H](NC(=O)c2ncccc2O)[C@@H](C)OC(=O)[C@H](c2ccccc2)NC(=O)[C@@H]2CC(=O)[C@H](CS[C@@H]3CN4CCC3CC4)CN2C(=O)[C@H](Cc2ccc(N(C)C)cc2)N(C)C(=O)[C@@H]2CCCN2C1=O` [QUINUPRISTIN] ({Picolinoyl(3-OH)}-T[dAbu]P[NMePhe(4-NMe2)][X2][Phg]; ester 1-C), the half-life in the data set “clinical [1]” was 0.87 h. This compound also gave a Vd in “clinical [2]” of 0.67 L/kg. For the same compound, the MRT in the data set “clinical [3]” was determined as 0.7 h. In the data set “clinical [4]”, this compound gave a fraction unbound of 0.34. In the data set “clinical [5]”, this compound registered a clearance of 16 mL/min/kg.

Turning to `O=C1OC2(c3ccc(O)cc3Oc3cc(O)ccc32)c2ccccc21` [FLUORESCEIN], the half-life in the data set “clinical [1]” is 1.6 h. Further, the Vd in the data set “clinical [2]” is 0.14 L/kg. In the data set “clinical [3]”, the mean residence time (MRT) was determined as 1.8 h. Besides, in “clinical [4]”, the free fraction (fraction unbound) was 0.11. The clearance in the data set “clinical [5]” amounted to 1.3 mL/min/kg.

In turn, `COCC(=O)O[C@]1(CCN(C)CCCc2nc3ccccc3[nH]2)CCc2cc(F)ccc2[C@@H]1C(C)C` [MIBEFRADIL] showed a half-life in the data set “clinical [1]” of 13 h. The volume of distribution (Vd) in “clinical [2]” turned out to be 3.1 L/kg. Besides, the mean residence time MRT in “clinical [3]” worked out at 13 h. Further, the free fraction (fraction unbound) in “clinical [4]” is 0.005. In addition, in the data set “clinical [5]”, the clearance came out at 4 mL/min/kg.

`Nc1ccn([C@@H]2O[C@H](CO)[C@@H](O)C2(F)F)c(=O)n1` [GEMCITABINE] showed a half-life in the data set “clinical [1]” of 1 h. Also, in the data set “clinical [2]”, the Vd was 1.5 L/kg. Also, the MRT in “clinical [3]” was 0.81 h. For the same compound, the fraction unbound in “clinical [4]” amounted to 1. Also, the clearance in the data set “clinical [5]” came out at 32 mL/min/kg.

Regarding `CO/N=C(\C(=O)N[C@@H]1C(=O)N2C(C(=O)O)=C(CSc3nc(C)c(CC(=O)O)s3)CS[C@H]12)c1csc(N)n1` [CEFODIZIME], in the data set “clinical [1]”, the half-life was 4.2 h. In “clinical [2]”, the distribution volume (Vd) came out at 0.054 L/kg. For the same compound, the mean residence time MRT in “clinical [3]” came to 1.5 h. This compound also returned a free fraction (fraction unbound) in the data set “clinical [4]” of 0.18. The compound further came in with a clearance in “clinical [5]” of 0.61 mL/min/kg.

Compound `CCCCCN(C)CCC(O)(P(=O)(O)O)P(=O)(O)O` [IBANDRONIC ACID] showed a half-life in the data set “clinical [1]” of 14 h. Also, the Vd in “clinical [2]” came to 0.55 L/kg. For the same compound, the MRT in “clinical [3]” was found to be 5.1 h. This compound also came in with a fraction unbound in “clinical [4]” of 0.15. This compound also displayed a clearance in “clinical [5]” of 1.8 mL/min/kg.

As to `CCCN1CCCC[C@H]1C(=O)Nc1c(C)cccc1C` [ROPIVACAINE], in the data set “clinical [1]”, the half-life was 2.2 h. Besides, the distribution volume (Vd) in the data set “clinical [2]” came to 0.75 L/kg. The MRT in “clinical [3]” is 2.3 h. For the same compound, the fraction unbound in “clinical [4]” was 0.06. In “clinical [5]”, this compound returned a clearance of 5.5 mL/min/kg.

Take `CSc1ccc(C(=O)c2[nH]c(=O)[nH]c2C)cc1` [ENOXIMONE]: the half-life in “clinical [1]” is 1 h. The same compound had a Vd in the data set “clinical [2]” of 1.8 L/kg. This compound also showed an MRT in “clinical [3]” of 1 h. In the data set “clinical [4]”, this compound yielded a fraction unbound of 0.3. Besides, in the data set “clinical [5]”, the clearance worked out at 29 mL/min/kg.

Regarding `CC(=O)[C@]1(O)Cc2c(O)c3c(c(O)c2[C@@H](O[C@H]2C[C@H](N)[C@H](O)[C@H](C)O2)C1)C(=O)c1ccccc1C3=O` [IDARUBICIN], the half-life in “clinical [1]” is 16 h. In the data set “clinical [2]”, this compound had a volume of distribution (Vd) of 38 L/kg. The MRT in “clinical [3]” amounted to 26 h. This compound also had a fraction unbound in the data set “clinical [4]” of 0.076. In “clinical [5]”, this compound yielded a clearance of 24 mL/min/kg.

In “clinical [1]”, `CC(=O)OCC1=C(C(=O)O)N2C(=O)[C@@H](NC(=O)Cc3cccs3)[C@H]2SC1` [CEPHALOTHIN] gave a half-life of 0.95 h. The volume of distribution (Vd) in “clinical [2]” was determined as 0.07 L/kg. Further, the MRT in “clinical [3]” is 0.65 h. In “clinical [4]”, this compound returned an unbound share (fraction unbound) of 0.22. In the data set “clinical [5]”, this compound displayed a clearance of 1.8 mL/min/kg.

`CCN(CCO)CCCC(C)Nc1ccnc2cc(Cl)ccc12` (stereo not given) [HYDROXYCHLOROQUINE] had a half-life in “clinical [1]” of 850 h. Also, the Vd in “clinical [2]” came to 700 L/kg. The compound also registered a mean residence time MRT in the data set “clinical [3]” of 1300 h. Also, the unbound share (fraction unbound) in “clinical [4]” is 0.57. The clearance in “clinical [5]” turned out to be 11 mL/min/kg.

For `CCOC(=O)[C@@H]1C2CCC(C[C@@H]1OC(=O)c1ccccc1)N2C` (stereo not given in full) [COCAETHYLENE], the half-life in “clinical [1]” is 1.5 h. For the same compound, the Vd in the data set “clinical [2]” worked out at 1.6 L/kg. In addition, in the data set “clinical [3]”, the mean residence time MRT was 2 h. In “clinical [4]”, this compound displayed an unbound share (fraction unbound) of 0.64. Also, in the data set “clinical [5]”, the clearance was determined as 13 mL/min/kg.

Consider `O.O=P(O)(O)C(O)(Cn1ccnc1)P(=O)(O)O` [ZOLEDRONIC ACID], for which the half-life in the data set “clinical [1]” was 11 h. Further, the Vd in “clinical [2]” was determined as 0.6 L/kg. The same compound gave an MRT in the data set “clinical [3]” of 4.5 h. In the data set “clinical [4]”, this compound came in with a free fraction (fraction unbound) of 0.78. Also, the clearance in “clinical [5]” is 2.2 mL/min/kg.

Take `C[C@H](Cn1cnc2c(N)ncnc21)OCP(=O)(O)O` [TENOFOVIR ANHYDROUS]: the half-life in “clinical [1]” is 5.8 h. Besides, in “clinical [2]”, the distribution volume (Vd) is 0.83 L/kg. In the data set “clinical [3]”, this compound registered a mean residence time MRT of 3.8 h. This compound had a fraction unbound in the data set “clinical [4]” of 0.93. The clearance in the data set “clinical [5]” was 3.1 mL/min/kg.

`O=NN(CCCl)C(=O)NCCCl` [CARMUSTINE]: in the data set “clinical [1]”, the half-life was 0.37 h. The compound also returned a volume of distribution (Vd) in the data set “clinical [2]” of 1.2 L/kg. For the same compound, the mean residence time MRT in “clinical [3]” was found to be 0.26 h. Also, the fraction unbound in “clinical [4]” was 0.23. The compound further came in with a clearance in the data set “clinical [5]” of 78 mL/min/kg.

In turn, `CC(=O)N[C@H](Cc1ccc2ccccc2c1)C(=O)N[C@H](Cc1ccc(Cl)cc1)C(=O)N[C@H](Cc1cccnc1)C(=O)N[C@@H](CO)C(=O)N[C@@H](Cc1ccc(O)cc1)C(=O)N[C@H](CCCNC(N)=O)C(=O)N[C@@H](CC(C)C)C(=O)N[C@@H](CCCNC(=N)N)C(=O)N1CCC[C@H]1C(=O)N[C@H](C)C(N)=O` [CETRORELIX] (Ac-[d2Nal][dPhe(4-Cl)][d3Pal]SY[dCit]LRP[dA]-NH2) showed a half-life in the data set “clinical [1]” of 12 h. The volume of distribution (Vd) in the data set “clinical [2]” stood at 0.39 L/kg. In “clinical [3]”, the mean residence time (MRT) is 5.4 h. In “clinical [4]”, this compound showed a fraction unbound of 0.14. Further, in “clinical [5]”, the clearance was 1.2 mL/min/kg.

In the case of `CNCCCC12CCC(c3ccccc31)c1ccccc12` [MAPROTILINE], the half-life in “clinical [1]” is 51 h. In the data set “clinical [2]”, this compound returned a distribution volume (Vd) of 45 L/kg. For the same compound, in “clinical [3]”, the mean residence time (MRT) worked out at 54 h. In the data set “clinical [4]”, this compound gave a fraction unbound of 0.11. Moreover, the clearance in “clinical [5]” worked out at 14 mL/min/kg.

Compound `Cc1cccc(C)c1NC(=O)C1CCCCN1C` (stereo not given) [MEPIVACAINE] gave a half-life in the data set “clinical [1]” of 2 h. In the data set “clinical [2]”, this compound returned a volume of distribution (Vd) of 0.95 L/kg. Besides, in the data set “clinical [3]”, the mean residence time MRT was determined as 2.5 h. The free fraction (fraction unbound) in “clinical [4]” came out at 0.3. The compound further came in with a clearance in “clinical [5]” of 6.8 mL/min/kg.

On to `CCNC(=O)[C@@H]1CCCN1C(=O)[C@H](CCCNC(=N)N)NC(=O)[C@H](CC(C)C)NC(=O)[C@@H](CC(C)C)NC(=O)[C@H](Cc1ccc(O)cc1)NC(=O)[C@H](CO)NC(=O)[C@H](Cc1c[nH]c2ccccc12)NC(=O)[C@H](Cc1c[nH]cn1)NC(=O)[C@@H]1CCC(=O)N1` [LEUPROLIDE], for which the half-life in “clinical [1]” was 2.9 h. In “clinical [2]”, this compound came in with a Vd of 0.38 L/kg. For the same compound, the mean residence time MRT in the data set “clinical [3]” worked out at 3.1 h. This compound gave a fraction unbound in the data set “clinical [4]” of 0.54. In addition, the clearance in the data set “clinical [5]” came out at 2 mL/min/kg.

`CCc1nc(N)nc(N)c1-c1ccc(Cl)cc1` [PYRIMETHAMINE]: the half-life in the data set “clinical [1]” is 140 h. In “clinical [2]”, the Vd is 0.43 L/kg. In the data set “clinical [3]”, this compound displayed a mean residence time (MRT) of 140 h. The same compound came in with a fraction unbound in “clinical [4]” of 0.095. The compound further yielded a clearance in the data set “clinical [5]” of 0.052 mL/min/kg.

The values are drawn from ChEMBL document CHEMBL1614632, “Trend analysis of a database of intravenous pharmacokinetic parameters in humans for 670 drug compounds” (Drug Metab Dispos, 2008).
